Here are results for one compound from patent publication US12409180B2, “Formulation production process” (Verona Pharma PLC, priority 2022, dated 2025).

What all share (assay type): physicochemical
Series [1] can be described thus: Overall assessment of products (assay and related substances) after sterilisation. How it is done: (§1) Assay testing was performed in duplicate with the key high performance liquid chromatography (HPLC) parameters shown in Table 1.
(§2) Impurities determination was performed in duplicate with the key high performance liquid chromatography (HPLC) parameters shown in Table 2.
(§3) The assays and related substances of the products obtained by each of sterilisation techniques A to F were assessed by the HPLC methods described above.

Series [2] can be described thus: Impurities determination (related substances) by HPLC of products after sterilisation. Particulars: dry heat treatment at temperatures of from 150° C. to 170° C. The procedure: as §2, §3
The nature of series [3]: Assay testing by HPLC of products after sterilisation. Conditions: dry heat treatment at temperatures of from 150° C. to 170° C. How it is done:
as §1, §3

The structures appear in SMILES notation.

Take `COc1cc2c(cc1OC)-c1c/c(=N\c3c(C)cc(C)cc3C)n(CCNC(N)=O)c(=O)n1CC2` [micronised ensifentrine, N-(2-{(2E)-9,10-dimethoxy-4-oxo-2-[(2,4,6-trimethylphenyl)imino]-6,7-dihydro-2H-pyrimido [6,1-a]isoquinolin-3(4H)-yl}ethyl) urea]: the “changes observed (assay and related substances)” value in series [1] (technique C: dry heat treatment of dry powder, 150° C. for 150 minutes) is recorded as “No significant changes observed”; in series [1] (technique D: dry heat treatment of dry powder, 160° C. for 120 minutes), “No significant changes observed”; in series [1] (technique E: dry heat treatment of dry powder, 170° C. for 60 minutes) it was “No significant changes observed”. In series [2], the changes in purity result is recorded as “no significant changes”. Moreover, the changes in assay entry in series [3] is listed as “no significant changes”.
